US20260115209A1, “COMBINATION THERAPY INCLUDING COX-2 INHIBITOR FOR THE TREATMENT OF CANCER” (THE REGENTS OF THE UNIVERSITY OF CALIFORNIA, priority 2022, published 2026)

Tests used:
Experiment in all cases: Cell viability assay (CellTiter-Glo), GI50, 3-day treatment
Format in all cases: cell-based
HT29 = settings: Homo sapiens, HT-29, 72 h; HT29 (BRAF^V600E CRC); 50% growth inhibition after 3 days of treatment compared to control; read-out: GI50 concentrations
Description: (§1) To assess the growth/survival response of cell lines to single or combinatorial drug treatments, we used CellTiter-Glo cell viability assay (Promega; cat #G7571). Cell culture and luminescence readouts were performed in 96- and 384-well plates after 3-day treatments. GI50 corresponds to the concentration of a given drug that causes 50% inhibition of cell growth (GI50). The effects of drug combinations on cell growth were assessed by calculating fold change in VEM-sensitivity and combination index (C.I.) that were experimentally measured from ≥9 individual datapoints around drugs' GI50, i.e. at GI50, 0.5×GI50, 2×GI50 concentrations of each drug per drug combination experiment. To address the particular effects of some drug treatments on some cell lines, the choice of experimental datapoints centered around drugs' GI50 effects was adjusted by including individual datapoints ranging from ≥GI25 to ≤GI75, leading to calculate fold change in VEM-sensitivity and combination index (C.I.) from 12 to 20 individual datapoints, as previously explained (7).

LIM2405 = settings: 72 h; LIM2405 (BRAF^V600E CRC); 50% growth inhibition after 3 days of treatment compared to control; read-out: GI50 concentrations
Description: as §1

WiDr = settings: Homo sapiens, 72 h; WiDr (BRAF^V600E CRC); 50% growth inhibition after 3 days of treatment compared to control; read-out: GI50 concentrations
Description: as §1

RKO1 = settings: 72 h; RKO1 (BRAF^V600E CRC); 50% growth inhibition after 3 days of treatment compared to control; read-out: GI50 concentrations
Description: as §1

KM20 = settings: 72 h; KM20 (BRAF^V600E CRC); 50% growth inhibition after 3 days of treatment compared to control; read-out: GI50 concentrations
Description: as §1

Sk-Mel-28 = settings: Homo sapiens, 72 h; Sk-Mel-28 (BRAF^V600E melanoma); 50% growth inhibition after 3 days of treatment compared to control; read-out: GI50 concentrations
Description: as §1

OUMS23 = settings: OUMS-23, 72 h; OUMS23 (CRC MAP3K8^amp); 50% growth inhibition after 3 days of treatment compared to control; read-out: GI50 concentrations
Description: as §1

LS411N = settings: Homo sapiens, LS-411N, 72 h; LS411N (BRAF^V600E CRC); 50% growth inhibition after 3 days of treatment compared to control; read-out: GI50 concentrations
Description: as §1

VACO432 = settings: 72 h; VACO432 (BRAF^V600E CRC); 50% growth inhibition after 3 days of treatment compared to control; read-out: GI50 concentrations
Description: as §1

A375 = settings: Homo sapiens, A-375, 72 h; A375 (BRAF^V600E melanoma); 50% growth inhibition after 3 days of treatment compared to control; read-out: GI50 concentrations
Description: as §1

CCCS(=O)(=O)Nc1ccc(F)c(C(=O)c2c[nH]c3ncc(-c4ccc(Cl)cc4)cc23)c1F [vemurafenib, N-[3-[5-(4-chlorophenyl)-1H-pyrrolo[2,3-b]pyridine-3-carbonyl]-2,4-difluorophenyl]propane-1-sulfonamide]
GI50 (HT29): 1.75 µM | GI50 (LIM2405): 0.15 µM | GI50 (WiDr): 1.5 µM | GI50 (RKO1): 1.7 µM | GI50 (KM20): 2 µM | GI50 (Sk-Mel-28): 0.15 µM | GI50 (OUMS23): 1.4 µM | GI50 (LS411N): 1.45 µM | GI50 (VACO432): 1.15 µM | GI50 (A375): 0.01 µM
